# Read-outs that look alike come from different tables or passages of the source.
# Legend:
# [1] = target: T1, HCV NS5B polymerase 1a-H77 (Hepatitis C virus genotype 1a, UniProt P27958); assay: biochemical; parameters: species or system HCV genotype 1a; settings: enzyme, strain 1a H77; read-out: HCV Polymerase Strain 1a H77 IC50
# T1 construct: six-histidine tag; made in house; host or cells: E. coli
# Method in brief: (§1)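 Incorporation of [3H]UTP (0.284 μM), alongside 20 μM each CTP and ATP, into RNA copied from a 5 nM 2.1 kb genotype 1b negative-strand template was measured after 3 h at 30° C using purified His-tagged NS5B truncated at residue 570. Product was spermine-precipitated, filtered and scintillation-counted; nonlinear regression gave IC50.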
# [2] = target: T2, HCV NS5B polymerase 1a-H77-C316Y (Hepatitis C virus genotype 1a, UniProt P27958, C2736Y); assay: biochemical; parameters: species or system HCV genotype 1a
# T2 construct: six-histidine tag; made in house; host or cells: E. coli
# Method in brief: as §1
# [3] = system: HCV NS5B polymerase 1a-H77-C316Y; assay: biochemical; parameters: species or system HCV genotype 1a; settings: ratio of enzyme IC50s, 1a H77-C316Y / 1a H77
# Method in brief: as §1
# [4] = target: T3, HCV NS5B polymerase 1b BK strain (Hepatitis C virus genotype 1b, UniProt P26663); assay: HCV NS5B polymerase enzymatic inhibition assay, strain 1b BK; format: biochemical; settings: enzyme, strain 1b BK; read-out: HCV Polymerase Strain 1b BK IC50
# T3 construct: six-histidine tag; made in house; host or cells: E. coli
# Method in brief: as §1
# [5] = system: HCV 1a-H77 subgenomic replicon; assay: microbe, parasite or virus in culture; format: cell-based, HCV genotype 1a; settings: Hepatitis C virus, stable replicon
# [6] = system: HCV 1b-BB7 subgenomic replicon; assay: microbe, parasite or virus in culture; format: cell-based, HCV genotype 1b; settings: Hepatitis C virus, stable replicon
# [7] = system: chimeric replicon with 2a-J6CF-derived NS5B; assay: microbe, parasite or virus in culture; format: cell-based, HCV genotype 2a; settings: Hepatitis C virus, read-out: 2a chimera 5% FBS EC50
# [8] = system: chimeric replicon with genotype 2b NS5B; assay: microbe, parasite or virus in culture; format: cell-based, HCV genotype 2b; settings: Hepatitis C virus, read-out: 2b chimera 5% FBS EC50
# [9] = system: chimeric replicon with genotype 3a NS5B; assay: microbe, parasite or virus in culture; format: cell-based, HCV genotype 3a; settings: Hepatitis C virus, read-out: 3a chimera 5% FBS EC50
# [10] = system: chimeric replicon with genotype 4a NS5B; assay: microbe, parasite or virus in culture; format: cell-based, HCV genotype 4a; settings: Hepatitis C virus, read-out: 4a chimera 5% FBS EC50
# [11] = 5% FBS, absence of human plasma, read-out: Stable Replicon 1a H77 5% FBS EC50
# [12] = strain 1a H77, 5% FBS + 40% human plasma, read-out: 1a H77 5% FBS + 40% Human Plasma EC50
# [13] = strain 1a H77, 5% FBS, no human plasma, read-out: 1a H77 5% FBS EC50
# [14] = strain 1a H77, 5% FBS, read-out: 1a H77 5% FBS EC50
# [15] = strain 1b BB7, 5% FBS + 40% human plasma, read-out: 1b BB7 5% FBS + 40% Human Plasma EC50
# [16] = strain 1b BB7, 5% FBS, no human plasma, read-out: 1b BB7 5% FBS EC50
# [17] = strain 1b BB7, 5% FBS, read-out: 1b BB7 5% FBS EC50
# T3 sequence (P26663 2420-2989): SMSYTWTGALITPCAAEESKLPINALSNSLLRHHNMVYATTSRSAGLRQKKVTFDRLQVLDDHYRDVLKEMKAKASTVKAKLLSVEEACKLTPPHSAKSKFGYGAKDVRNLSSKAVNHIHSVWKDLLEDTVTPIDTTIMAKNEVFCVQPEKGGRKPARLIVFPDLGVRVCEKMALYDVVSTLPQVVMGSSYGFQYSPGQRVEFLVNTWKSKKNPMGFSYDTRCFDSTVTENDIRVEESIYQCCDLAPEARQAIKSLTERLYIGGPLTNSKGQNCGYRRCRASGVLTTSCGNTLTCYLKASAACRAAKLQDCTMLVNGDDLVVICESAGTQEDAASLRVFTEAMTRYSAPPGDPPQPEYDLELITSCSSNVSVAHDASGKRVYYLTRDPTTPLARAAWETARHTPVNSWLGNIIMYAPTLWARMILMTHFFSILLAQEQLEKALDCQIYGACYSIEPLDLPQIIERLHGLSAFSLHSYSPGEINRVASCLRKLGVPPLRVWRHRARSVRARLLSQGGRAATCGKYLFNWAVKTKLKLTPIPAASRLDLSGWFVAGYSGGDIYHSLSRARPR
# T2 sequence (P27958 2421-2990 C2736Y): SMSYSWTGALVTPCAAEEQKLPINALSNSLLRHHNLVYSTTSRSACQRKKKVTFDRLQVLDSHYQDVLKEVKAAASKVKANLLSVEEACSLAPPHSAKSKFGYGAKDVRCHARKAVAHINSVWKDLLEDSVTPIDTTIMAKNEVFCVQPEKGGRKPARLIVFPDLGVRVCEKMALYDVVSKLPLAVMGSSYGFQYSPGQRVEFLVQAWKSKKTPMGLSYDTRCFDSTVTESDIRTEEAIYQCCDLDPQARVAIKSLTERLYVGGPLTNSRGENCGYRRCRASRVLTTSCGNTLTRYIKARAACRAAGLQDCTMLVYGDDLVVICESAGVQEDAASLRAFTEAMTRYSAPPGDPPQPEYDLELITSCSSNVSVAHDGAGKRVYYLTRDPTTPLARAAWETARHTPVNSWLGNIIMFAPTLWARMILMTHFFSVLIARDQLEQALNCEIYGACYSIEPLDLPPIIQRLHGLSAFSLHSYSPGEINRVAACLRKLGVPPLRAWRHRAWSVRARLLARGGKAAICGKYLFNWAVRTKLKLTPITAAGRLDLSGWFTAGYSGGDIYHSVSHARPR
# T1 sequence (P27958 2421-2990): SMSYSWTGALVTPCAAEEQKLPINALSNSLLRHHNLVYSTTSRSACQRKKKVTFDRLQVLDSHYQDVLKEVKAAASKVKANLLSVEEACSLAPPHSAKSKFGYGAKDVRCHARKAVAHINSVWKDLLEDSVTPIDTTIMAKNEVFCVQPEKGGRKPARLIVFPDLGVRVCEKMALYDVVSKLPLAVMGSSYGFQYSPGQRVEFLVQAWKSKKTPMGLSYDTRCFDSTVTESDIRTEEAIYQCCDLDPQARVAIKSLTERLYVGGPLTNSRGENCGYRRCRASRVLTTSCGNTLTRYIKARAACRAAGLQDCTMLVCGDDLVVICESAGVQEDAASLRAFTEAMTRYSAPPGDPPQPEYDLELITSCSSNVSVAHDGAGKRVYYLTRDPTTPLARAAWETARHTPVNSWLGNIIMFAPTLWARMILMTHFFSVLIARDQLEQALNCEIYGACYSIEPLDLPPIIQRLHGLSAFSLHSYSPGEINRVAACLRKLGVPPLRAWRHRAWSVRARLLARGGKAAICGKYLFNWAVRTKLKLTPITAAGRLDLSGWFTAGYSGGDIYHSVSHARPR
Structure (SMILES),IC50 [1],IC50 [2],C316Y/1a Fold Resistance [3],IC50 [4],"EC50 [5, 11]","EC50 [5, 12]","EC50 [5, 13]","EC50 [5, 14]","EC50 [6, 15]","EC50 [6, 16]","EC50 [6, 17]",EC50 [7],EC50 [8],EC50 [9],EC50 [10]
"CN(C)C(=O)CCCN(c1cc2oc(-c3ccc(F)cc3)c(-c3ncc[nH]3)c2cc1C1CC1)S(C)(=O)=O [Example 102, 4-{[5-cyclopropyl-2-(4-fluorophenyl)-3-(1H-imidazol-2-yl)-1-benzofuran-6-yl](methylsulfonyl)amino}-N,N-dimethylbutanamide]",7.7 nM,168 nM,22 fold,47 nM,24.1 nM,242 nM,24.1 nM,24.1 nM,66 nM,10 nM,10 nM,108 nM,134 nM,9.7 nM,145 nM
"CNC(=O)CCCN(c1cc2oc(-c3ccc(F)cc3)c(-c3ncc[nH]3)c2cc1C1CC1)S(C)(=O)=O [Example 107, 4-{[5-cyclopropyl-2-(4-fluorophenyl)-3-(1H-imidazol-2-yl)-1-benzofuran-6-yl](methylsulfonyl)amino}-N-methylbutanamide]",5.5 nM,122 nM,22 fold,28 nM,17.5 nM,82 nM,17.5 nM,17.5 nM,66 nM,11 nM,11 nM,135 nM,141 nM,9.3 nM,129 nM
"[2H]C([2H])(CCCCC)N(c1cc2oc(-c3ccc(F)cc3)c(-c3ncc[nH]3)c2cc1C1CC1)S(C)(=O)=O [Example 113, N-[5-cyclopropyl-2-(4-fluorophenyl)-3-(1H-imidazol-2-yl)-1-benzofuran-6-yl]-N-[(1,1-^2H2)hexyl]methanesulfonamide]",6.5 nM,140 nM,22 fold,16 nM,59.9 nM,646 nM,59.9 nM,59.9 nM,549 nM,28 nM,28 nM,209 nM,279 nM,41 nM,144 nM
"CCOP(=O)(CCCN(c1cc2oc(-c3ccc(F)cc3)c(C3=NOCCN3)c2cc1C1CC1)S(C)(=O)=O)OCC [Example 116, diethyl (3-{[5-cyclopropyl-3-(5,6-dihydro-4H-1,2,4-oxadiazin-3-yl)-2-(4-fluorophenyl)-1-benzofuran-6-yl](methylsulfonyl)amino}propyl)phosphonate]",7.5 nM,63 nM,8 fold,35 nM,35.9 nM,157 nM,35.9 nM,35.9 nM,213 nM,32 nM,32 nM,535 nM,396 nM,84 nM,247 nM
"CS(=O)(=O)N(CCCC(F)(F)F)c1cc2oc(-c3ccc(F)cc3)c(C3=NOCCN3)c2cc1C1CC1 [Example 117, N-[5-cyclopropyl-3-(5,6-dihydro-4H-1,2,4-oxadiazin-3-yl)-2-(4-fluorophenyl)-1-benzofuran-6-yl]-N-(4,4,4-trifluorobutyl)methanesulfonamide]",4.5 nM,36 nM,8 fold,31 nM,22 nM,159 nM,22 nM,22 nM,245 nM,30 nM,30 nM,214 nM,240 nM,31 nM,233 nM

# From patent publication US20160355530A1, “HEPATITIS C INHIBITORS AND USES THEREOF” (AbbVie Inc., priority 2010, published 2016)
